Laboratory results from ChEMBL document CHEMBL5329213, “Discovery of a novel GPR35 agonist with high and equipotent species potency for oral treatment of IBD” (Bioorg Med Chem, 2023).
One block for each compound: values may come before it. The source made the active and inactive calls. The calls are words filed in the database; no cut-off is given here.

Key:
[1] = molecular target: T1, G-protein coupled receptor 35 (Mus musculus, UniProt Q9ES90); experiment: Agonist activity at mouse GPR35 expressed in HEK293 cells co-expressing Galpha16 assessed as increase in calcium mobilization by Fluo-4 AM dye based fluorescence assay; assay type: functional, cell-based
[2] = molecular target: G-protein coupled receptor 35 (Mus musculus) (UniProt Q9ES90); experiment: Agonist activity at mouse GPR35 expressed in HEK293 cells co-expressing Galpha16 assessed as increase in calcium mobilization by Fluo-4 AM dye based fluorescence assay relative to-iodoxamide; assay type: functional, cell-based; conditions: filed as agonist
[3] = molecular target: T2, G-protein coupled receptor 35 (Homo sapiens, UniProt Q9HC97); experiment: Agonist activity at human GPR35 expressed in HEK293 cells co-expressing Galpha16 assessed as increase in calcium mobilization by Fluo-4 AM dye based fluorescence assay; assay type: functional, cell-based
[4] = Agonist activity at rat GPR35 expressed in HEK293 cells co-expressing Galpha16 assessed as increase in calcium mobilization by Fluo-4 AM dye based fluorescence assay
[5] = Agonist activity at rat GPR35 by beta-arrestin recruitment assay
[6] = molecular target: T2, G-protein coupled receptor 35; experiment: Agonist activity at human GPR35 by beta-arrestin recruitment assay; assay type: functional
[7] = molecular target: T1, G-protein coupled receptor 35; experiment: Agonist activity at mouse GPR35 by beta-arrestin recruitment assay; assay type: functional
[8] = Stability of the compound in plasma of DSS-induced ulcerative colitis C57BL/6 mouse model at 20 mg/kg, po qd for 7 days administered via gavage; assay type: ADME, organism-based; conditions: in vivo, 168 h, time 7 day
[9] = Stability of the compound in mouse plasma; assay type: ADME, cell-free
Mus musculus [10] = experiment: Anti-colitis activity against DSS-induced ulcerative colitis C57BL/6 mouse model assessed as reduction in colitis symptoms by measuring decrease in body weight loss at 200 mg/kg, po qd for 7 days administered via gavage; assay type: functional, organism-based; conditions: time 7.0 day
Mus musculus [11] = experiment: Anti-colitis activity against DSS-induced ulcerative colitis C57BL/6 mouse model assessed as reduction in colitis symptoms by measuring decrease in rectal bleeding at 200 mg/kg, po qd for 7 days administered via gavage; assay type: functional, organism-based; conditions: time 7.0 day
Mus musculus [12] = experiment: Anti-colitis activity against DSS-induced ulcerative colitis C57BL/6 mouse model assessed as reduction in colitis symptoms by measuring decrease in stool thinning at 200 mg/kg, po qd for 7 days administered via gavage; assay type: functional, organism-based; conditions: time 7.0 day

T1 sequence (Q9ES90 whole entry): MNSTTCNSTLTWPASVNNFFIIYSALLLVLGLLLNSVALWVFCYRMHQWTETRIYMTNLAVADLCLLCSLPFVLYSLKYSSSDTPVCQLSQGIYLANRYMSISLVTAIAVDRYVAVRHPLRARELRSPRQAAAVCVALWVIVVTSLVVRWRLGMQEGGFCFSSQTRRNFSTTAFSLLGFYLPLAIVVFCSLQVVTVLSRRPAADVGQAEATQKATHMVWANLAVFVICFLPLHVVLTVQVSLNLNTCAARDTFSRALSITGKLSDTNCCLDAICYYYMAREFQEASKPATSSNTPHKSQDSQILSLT
G-protein coupled receptor 35 (Mus musculus), sequence (Q9ES90 whole entry): as above
T2 sequence (Q9HC97 whole entry): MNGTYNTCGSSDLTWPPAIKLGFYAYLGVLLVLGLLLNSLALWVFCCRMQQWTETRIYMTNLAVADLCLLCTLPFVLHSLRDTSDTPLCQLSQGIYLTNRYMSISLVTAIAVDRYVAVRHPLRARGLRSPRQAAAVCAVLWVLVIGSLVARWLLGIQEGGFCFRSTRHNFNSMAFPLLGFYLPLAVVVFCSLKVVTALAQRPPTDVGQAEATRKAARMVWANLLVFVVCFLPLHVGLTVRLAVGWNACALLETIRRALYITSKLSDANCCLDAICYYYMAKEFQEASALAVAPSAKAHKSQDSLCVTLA

Structure (SMILES): COc1c(NC(=O)C(=O)O)cc(C#N)cc1NC(=O)C(=O)O
EC50 [1]: 3110 nM

Structure (SMILES): CCOC(=O)C(=O)Nc1cccc(NC(=O)C(=O)OCC)c1Cl
EC50 [1]: 3260 nM

Structure (SMILES): O=C(O)C(=O)Nc1cc(C(=O)O)cc(NC(=O)C(=O)O)c1Cl
Emax [2]: 75%
EC50 [1]: 5300 nM
EC50 [3]: 125 nM

Structure (SMILES): O=C(O)c1cc(=O)c2c(OCC(O)COc3cccc4oc(C(=O)O)cc(=O)c34)cccc2o1 [CROMOLYN]
EC50 [5]: 4000 nM
EC50 [7]: 58000 nM
EC50 [6]: 8000 nM

Structure (SMILES): Cc1cc(NC(=O)C(=O)O)c(Cl)c(NC(=O)C(=O)O)c1
EC50 [1]: 69.1 nM

Structure (SMILES): N#Cc1cc(NC(=O)C(=O)O)cc(NC(=O)C(=O)O)c1
EC50 [1]: 376 nM

Structure (SMILES): O=C(O)c1cc2ccccc2c(Cc2c(O)c(C(=O)O)cc3ccccc23)c1O [PAMOIC ACID]
EC50 [5]: > 100000 nM

Structure (SMILES): CCOC(=O)C(=O)Nc1cc(C(F)(F)F)cc(NC(=O)C(=O)OCC)c1Cl
EC50 [1]: 63.7 nM
Stability [8]: Unstable
Stability [9]: Unstable

Structure (SMILES): Nc1ccc(O)c(C(=O)O)c1
Activity (Mus musculus [10]): Active
Activity (Mus musculus [11]): Active
Activity (Mus musculus [12]): Active

Structure (SMILES): O=C(Nc1cc(C(F)(F)F)cc(NC(=O)C(=O)OC2CC2)c1Cl)C(=O)OC1CC1
Emax [2]: 86%
EC50 [1]: 119 nM
EC50 [3]: 75 nM

Structure (SMILES): CCOC(=O)C(=O)Nc1cc(Br)cc(NC(=O)C(=O)OCC)c1Cl
EC50 [1]: 42.5 nM

Structure (SMILES): CCOC(=O)C(=O)Nc1cc(C(=O)OCC(C)C)cc(NC(=O)C(=O)OCC)c1Cl
EC50 [1]: 20.9 nM

More lines, now with the values ahead:

Emax [2]: 139%
EC50 [1]: 263 nM
EC50 [3]: 29.2 nM
Structure (SMILES): CCOC(=O)C(=O)Nc1cc(C#N)cc(NC(=O)C(=O)OCC)c1Cl [LODOXAMIDE ETHYL]

EC50 [1]: 9160 nM
Structure (SMILES): CN(C)c1c(NC(=O)C(=O)O)cc(C#N)cc1NC(=O)C(=O)O

EC50 [4]: 21.5 nM
EC50 [5]: 13 nM
EC50 [1]: 422 nM
EC50 [3]: 41.1 nM
EC50 [6]: 4 nM
Structure (SMILES): N#Cc1cc(NC(=O)C(=O)O)c(Cl)c(NC(=O)C(=O)O)c1 [LODOXAMIDE]

EC50 [4]: 34.6 nM
Emax [2]: 106%
EC50 [1]: 28.1 nM
EC50 [3]: 25.8 nM
Structure (SMILES): O=C(O)C(=O)Nc1cc(Br)cc(NC(=O)C(=O)O)c1Cl

EC50 [5]: 8000 nM
Structure (SMILES): O=C1N/C(=N/c2ccccc2F)S/C1=C\c1ccc(C(=O)O)cc1

EC50 [1]: 3640 nM
Structure (SMILES): O=C(O)C(=O)Nc1cccc(NC(=O)C(=O)O)c1Cl

EC50 [1]: 61 nM
Structure (SMILES): O=C(Nc1cc(C(F)(F)F)cc(NC(=O)C(=O)OC2CCCCC2)c1Cl)C(=O)OC1CCCCC1

EC50 [1]: > 10000 nM
Structure (SMILES): Cc1c(NC(=O)C(=O)O)cc(C(=O)O)cc1NC(=O)C(=O)O

EC50 [5]: 100 nM
EC50 [7]: 1000 nM
Structure (SMILES): CCCOc1ccccc1-c1nc2[nH]nnc2c(=O)[nH]1 [ZAPRINAST]

EC50 [1]: 55.8 nM
Structure (SMILES): O=C(O)C(=O)Nc1cc(C(F)(F)F)cc(NC(=O)C(=O)O)c1Cl

EC50 [5]: 1400 nM
Structure (SMILES): COc1ccc(C(=O)Nc2cc(Br)cc3c(=O)cc(C(=O)O)oc23)cc1

EC50 [5]: 10 nM
Structure (SMILES): CCCCc1cc2c(=O)cc(C(=O)O)[nH]c2c2c(=O)cc(C(=O)O)[nH]c12 [BUFROLIN]

EC50 [1]: 27.2 nM
Structure (SMILES): COC(=O)C(=O)Nc1cc(C(F)(F)F)cc(NC(=O)C(=O)OC)c1Cl

Emax [2]: 105%
EC50 [1]: 8060 nM
EC50 [3]: 4250 nM
Structure (SMILES): O=C(O)C(=O)Nc1cccc(NC(=O)C(=O)O)c1

Emax [2]: 91%
EC50 [1]: 126 nM
EC50 [3]: 1040 nM
Structure (SMILES): O=C(Nc1cc(C(F)(F)F)cc(NC(=O)C(=O)OC2CCCC2)c1Cl)C(=O)OC1CCCC1

EC50 [1]: 12.4 nM
Structure (SMILES): O=C(O)C(=O)Nc1cc(NC(=O)C(=O)O)cc(C(F)(F)F)c1
